Experimental data reported in patent US20070248702A1, “Use of CB2 receptors agonists for the treatment of Huntington's disease” (priority 2004, published 2007).

Key:
[1] = system: rats with unilateral injections of malonate; assay: GABA contents in basal ganglia by HPLC, malonate rat model of Huntington's disease; format: in vivo; settings: for GABA contents Globus pallidus / GABA contents Substantia nigra: % of lesioned side over non-lesioned side, mean ± SEM, i.p. 30 min before and 2 h after malonate (ACEA 3 mg/kg, HU-308 5 mg/kg, CBD 5 mg/kg), 48 h; for malonate-induced GABA loss in the striatum (caudate-putamen): FIG. 1, result in words, HU-308 5 mg/kg; for malonate-induced GABA loss in the striatum (caudate-putamen) / neurochemical deficits induced by malonate in the caudate-putamen and other basal ganglia structures: CBD 5 mg/kg i.p.; for neurochemical deficits induced by malonate in the caudate-putamen and other basal ganglia structures: Table 1 and FIG. 1, result in words, ACEA 3 mg/kg
Procedure: (§1) Animals. Male Sprague-Dawley rats were housed in a room with controlled photoperiod (08:00-20:00 light) and temperature (23±1° C.). […] Each treatment group consisted of at least six animals.
(§2) Intrastriatal injection of malonate. Rats were injected stereotaxically (coordinates: +0.8 mm anterior, 2.9 mm lateral from the bregma, 4.5 mm ventral from the dura mater) into the left striatum with 2 M malonate in a volume of 1 μl and used for experimental analysis 48 h later.
(§3) Cannabinoid treatment. […] All compounds were prepared in Tween 80-saline solution (1:16 volume per volume). The volume dosage for i.p. administration was 2 ml/kg body weight. The doses used for each experiment were selected from the previous studies on the pharmacological properties of these compounds.
(§4) Animals were killed 46 hours after the second cannabinoid injection and their brains were rapidly removed and frozen in 2-methylbutane cooled in dry ice, and stored until evaluation of the degree of malonate-induced striatal injury.
(§5) Sample preparation. Brains coronal slices (around 500 μm thick) were made at levels containing the substantia nigra, the globus pallidus and the caudate-putamen, according to Palkovits M. and Brownstein J. (Maps and Guide to Microdissection of the Rat Brain. Elsevier, 1988). Subsequently, the three structures were dissected and homogenized in 20-40 volumes of cold 150 mM potassium phosphate buffer, pH 6.8. Each homogenate was distributed for the analysis of the contents of GABA or dopainine and its major metabolite, 3,4-dihydroxyphenylacetic acid (DOPAC), by High Performance Liquid Chromatography (HPLC) coupled to electrochemical detection, according to previously described methods (Romero J. et al., Brain Res. 694: 223-32, 1995; González S. et al., Life Sci. 65: 327-36, 1999). An aliquot of each homogenate was used to analyze protein concentration (Lowry O. H. et al., J. Biol. Chem. 193: 265-75, 1951).
Analysis of GABA contents. This analysis was carried out by HPLC with electrochemical detection according to the procedure described by Smith S, and Sharp T. (J. Chromat. 652: 228-33, 1994). The aliquot of the homogenate used for the direct measurement of GABA content was diluted 1:2 with 0.4 N perchloric acid containing 0.4 mM sodium disulfite, 0.90 mM EDTA and 10 μg/ml β-aminobutyrate (BABA) as an internal standard. Following, samples were centrifuged for 3 min (15,000 g) and 50 μl of each supernatant removed and neutralized with 100 μl of 0.1 N NaOH. Samples were stored at 4° C. until analysis. This was performed by derivatization of GABA and BABA (β-aminobutyrate) through the addition of 15 μl of o-phthaldehyde (OPA)-sulfite solution (14.9 mM OPA, 45.4 mM sodium sulfite and 4.5% ethanol in 327 mM borate buffer, pH 10.4). Samples were allowed to react at room temperature for a period of 10 min. After this time, 20 μl of each reaction mixture (including derivatizated calibration standards composed of known concentrations of GABA and BABA) were injected into the HPLC system. The HPLC system consisted of the following elements. The pump was an isocratic Spectra-Physics 8810. The column was a RP-18 (Spherisorb ODS-2; 150 mm, 4.6 mm, 5 μm particle size; Waters, Mass., USA). The mobile phase, previously filtered and degassed, consisted of 0.06 M sodium dihydrogen phosphate, 0.06 mM EDTA and 20-30% methanol (pH 4.4) and the flow rate was 0.8 ml/min. The effluent was monitored with a Metrohm bioanalytical system amperometric detector using a glassy carbon electrode. The potential was 0.85V relative to an Ag/AgCl reference electrode with a sensitivity of 50 nA (approx. 2 ng per sample). The signal was recorded on a Spectra-Physics 4290 integrator. The approximate retention times for GABA and BABA were 8 and 16 min, respectively. […] Values were expressed as μg/mg of protein.

[2] = system: rats with unilateral injections of malonate; assay: dopamine and DOPAC contents in caudate-putamen by HPLC, malonate rat model; format: in vivo; settings: % of lesioned side over non-lesioned side, mean ± SEM; i.p. 30 min before and 2 h after malonate (ACEA 3 mg/kg, HU-308 5 mg/kg, CBD 5 mg/kg); 48 h
Procedure: as §1, §2, §3, §4, §5

[3] = system: rats with unilateral injections of malonate; assay: in situ hybridization of neuronal-specific enolase mRNA, malonate rat model; format: in vivo; settings: FIG. 2, result in words; HU-308 5 mg/kg, CBD 5 mg/kg i.p.
Procedure: Animals were killed 46 hours after the second cannabinoid injection and their brains were rapidly removed and frozen in 2-methylbutane cooled in dry ice, and stored until evaluation of the degree of malonate-induced striatal injury. The protocol and results concerning the neurochemical evaluation of the neuronal injury and the effect of the various types of cannabinoids are reported in Example 2. The protocol and results concerning the effect of the various types of cannabinoids on the mRNA levels of neuron specific enolase are reported in Example 3.
(§6) Brain slicing. Coronal sections, 40 μm-thick, were cut in a cryostat, according to the Paxinos G. and Watson C. atlas (Rat brain in stereotaxic coordinates. Academic Press, London, 1986). Sections were thaw-mounted onto Superfrost Plus glass slides and dried briefly at 30° C. and stored at −80° C. until used.
(§7) Analysis of mRNA levels of NSE. Briefly, sections were fixed in 4% paraformaldehyde for 5 min and, after rinsing twice in PBS, were acetylated by incubation in 0.25% acetic anhydride, prepared in 0.1 M triethanolamine/0.15 M sodium chloride (pH 8.0), for 10 min. […]
(§8) The oligonucleotide probe was labeled at the 3′-end with [^35S]-dATP using terminal deoxynucleotidyl-transferase. […] The intensity of the hybridization signal was assessed by measuring the grey levels in the films with a computer-assisted video densitometer. […]

[4] = system: rats with unilateral injections of malonate; assay: in situ hybridization of SOD-1 and SOD-2 mRNA, malonate rat model; format: in vivo; settings: result in words, HU-308 5 mg/kg i.p.
Procedure: The protocol and results concerning possible sites of action are reported in Example 6.
as §6
as §7, with “min. Sections were rinsed in 0.3 M sodium chloride/0.03 M sodium citrate, pH 7.0, dehydrated and delipidated by ethanol/chloroform series. For hybridization, the following synthetic probe of 45 nucleotides was used.” for “min.”
as §8
Superoxide dismutase-1 and -2 (SOD-1 and SOD-2) were used as markers of endogenous antioxidant defenses. Their relative levels in lesioned vs. non-lesioned areas of malonate injected rats were measured by in situ hybridization. […]

human CB1 receptors = human CB1 receptors (Homo sapiens, UniProt P21554); settings: read-out: IC50 human CB1 receptors; as disclosed in WO 03/064359; cited from earlier work
[5] = system: mice treated with the neurotoxin MPTP; settings: WO 03/064359; cited from earlier work
[6] = system: rats with unilateral lesions of the caudate-putamen generated by local application of malonate; settings: Lastres-Becker et al., Neuroreport 14: 813-6, 2003; effects not dose-dependent; cited from earlier work
[7] = system: rats systemically exposed to 3-nitropropionic acid; settings: Lastres-Becker et al., Neuroreport 15: 2375-9, 2004; cited from earlier work

Sequence of human CB1 receptors (P21554 whole entry): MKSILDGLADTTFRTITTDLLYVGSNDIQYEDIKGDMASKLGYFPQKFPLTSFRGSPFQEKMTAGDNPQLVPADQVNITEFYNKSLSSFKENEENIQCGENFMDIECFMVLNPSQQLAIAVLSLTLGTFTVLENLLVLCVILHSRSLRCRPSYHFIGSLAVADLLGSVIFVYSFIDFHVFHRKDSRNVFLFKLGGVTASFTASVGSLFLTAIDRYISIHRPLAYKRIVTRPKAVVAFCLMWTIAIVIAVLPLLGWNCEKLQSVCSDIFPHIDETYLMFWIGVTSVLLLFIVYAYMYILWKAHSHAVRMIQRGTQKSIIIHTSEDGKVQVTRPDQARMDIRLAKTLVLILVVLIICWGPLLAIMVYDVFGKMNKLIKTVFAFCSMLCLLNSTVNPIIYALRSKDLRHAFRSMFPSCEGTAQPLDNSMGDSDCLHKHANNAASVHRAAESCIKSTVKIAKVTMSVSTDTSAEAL

Compound	GABA contents Globus pallidus [1]	GABA contents Substantia nigra [1]	malonate-induced GABA loss in the striatum (caudate-putamen) [1]	DA contents Caudate-putamen [2]	DOPAC contents Caudate-putamen [2]	mRNA levels for neuronal-specific enolase in the caudate-putamen [3]	neurochemical deficits induced by malonate in the caudate-putamen and other basal ganglia structures [1]	effect on malonate toxicity [6]	other results
CCCCCCC(C)(C)c1cc(OC)c(C2C=C(CO)C3CC2C3(C)C)c(OC)c1 (single isomer, unassigned; (+)) [HU-308, (+){4-[4-(1,1-dimethylheptyl)-2,6-dimethoxyphenyl]-6,6-dimethyl-bicyclo[3.1.1]hept-2-en-2-yl}-methanol]	90.1 ± 13.4 %	93.8 ± 7.7%	reduced malonate-induced GABA loss	34.1 ± 5.2 %	53.9 ± 5.7 %	partially prevented the malonate-induced reduction			GABA contents in the lesioned side ([1]; striatum, lesioned side, malonate + HU-308 5 mg/kg i.p.): 1.12±0.08 μg/mg of protein; GABA contents in the non-lesioned side ([1]; striatum, non-lesioned side, malonate + HU-308 5 mg/kg i.p.): 1.96±0.11 μg/mg of protein; mRNA levels for SOD-1 in the caudate-putamen ([4]; FIG. 5A): unable to prevent the malonate-induced decrease; mRNA levels for SOD-2 in the caudate-putamen ([4]; FIG. 5B): unable to prevent the malonate-induced decrease; IC50 (human CB1 receptors): 3.6 µM; cell death in the substantia nigra [5]: reduces the extent of cell death in the substantia nigra
CCCCC/C=C\C/C=C\C/C=C\C/C=C\CCCC(=O)NCCCl [ACEA, arachidonyl-2-chloroethylamide]	61.1 ± 12.2 %	92.1 ± 5.2%		23.8 ± 5.4 %	44.9 ± 9.7 %		did not influence neurochemical deficits		
C=C(C)[C@@H]1CCC(C)=C[C@H]1c1c(O)cc(CCCCC)cc1O [CBD, cannabidiol]	54.4 ± 8.2 %	86.3 ± 8.6%	slightly reduce the GABA depletion	12.6 ± 4.9 %		totally inactive	lack of neuroprotectant effects		
Cc1c(C(=O)NN2CCCCC2)nn(-c2ccc(Cl)cc2Cl)c1-c1ccc(Cl)cc1 [SR141716]								enhanced malonate toxicity	
CCCCCc1cc(O)c2c(c1)OC(C)(C)[C@@H]1CCC(C)=C[C@@H]21 [Δ^9-THC, Δ^9-tetrahydrocannabinol]								pro-toxic	neuroprotection in 3-nitropropionic acid rats [7]: neuroprotectant
SR144528									effect of co-administration on the HU-308 reduction of malonate-induced GABA depletion in the caudate-putamen ([1]; FIG. 3, SR144528 1 mg/kg i.p. with HU-308 5 mg/kg i.p.): completely reversed
